Assay results: patent US20150218212A1, “FLUORINATED EPOXYKETONE-BASED TETRAPEPTIDE COMPOUNDS AND USES THEREOF AS PROTEASOME INHIBITORS” (FLUORINOV PHARMA INC., priority 2012, published 2015)

How the values were obtained:
Assay type in all cases: cell-based, human
[1] = system: NCI-H23; assay: NCI screening panel, NCI-H23 (Non-Small Cell Lung Cancer)
Procedure: (§1) Representative compounds of Formula I were screened using the National Cancer Institute (NCI) screening panel, which consists of a panel of human tumor cell lines, representing leukemia, melanoma, and cancers of the lung, colon, ovary, breast, prostate and renal system.
(§2) After 24 h, two plates of each cell line are fixed in situ with TCA, to represent a measurement of the cell population for each cell line at the time of drug addition (Tz). Experimental drugs are solubilised in dimethyl sulfoxide at 400-fold the desired final maximum test concentration and stored frozen prior to use. At the time of drug addition, an aliquot of frozen concentrate is thawed and diluted to twice the desired final maximum test concentration with complete medium containing 50 μg/mL gentamicin. Additional four, 10-fold or ½ log serial dilutions are made to provide a total of five drug concentrations plus control. Aliquots of 100 μl of these different drug dilutions are added to the appropriate microtiter wells already containing 100 μl of medium, resulting in the required final drug concentrations.
(§3) Following drug addition, the plates are incubated for an additional 48 h at 37° C., 5% CO2, 95% air, and 100% relative humidity. For adherent cells, the assay is terminated by the addition of cold TCA (trichloroacetic acid). Cells are fixed in situ by the gentle addition of 50 μl of cold 50% (w/v) TCA (final concentration, 10% TCA) and incubated for 60 minutes at 4° C. The supernatant is discarded, and the plates are washed five times with tap water and air dried. Sulforhodamine B (SRB) solution (100 μl) at 0.4% (w/v) in 1% acetic acid is added to each well, and plates are incubated for 10 minutes at room temperature. After staining, unbound dye is removed by washing five times with 1% acetic acid and the plates are air dried. Bound stain is subsequently solubilised with 10 mM trizma base, and the absorbance is read on an automated plate reader at a wavelength of 515 nm. For suspension cells, the methodology is the same except that the assay is terminated by fixing settled cells at the bottom of the wells by gently adding 50 μl of 80% TCA (final concentration, 16% TCA). Using the seven absorbance measurements [time zero, (Tz), control growth, (C), and test growth in the presence of drug at the five concentration levels (Ti)], the percentage growth is calculated at each of the drug concentrations levels. Percentage growth inhibition is calculated as: [(Ti−Tz)/(C−Tz)]×100 for concentrations for which Ti>/=Tz and [(Ti−Tz)/Tz]×100 for concentrations for which Ti<Tz.
(§4) Three dose response parameters are calculated for each experimental agent. Growth inhibition of 50% (GI50) is calculated from [(Ti−Tz)/(C−Tz)]×100=50, which is the drug concentration resulting in a 50% reduction in the net protein increase (as measured by SRB staining) in control cells during the drug incubation. The drug concentration resulting in total growth inhibition (TGI) is calculated from Ti=Tz. The LC50 (concentration of drug resulting in a 50% reduction in the measured protein at the end of the drug treatment as compared to that at the beginning) indicating a net loss of cells following treatment is calculated from [(Ti−Tz)/Tz]×100=−50. Values are calculated for each of these three parameters if the level of activity is reached. However, if the effect is not reached or is exceeded, the value for that parameter is expressed as greater or less than the maximum or minimum concentration tested.

[2] = system: UACC-62; assay: NCI screening panel, UACC-62 (Melanoma)
Procedure: as §1, §2, §3, §4

[3] = system: OVCAR-3; assay: NCI screening panel, OVCAR-3 (Ovarian Cancer)
Procedure: as §1, §2, §3, §4

Compound: CC(C)C[C@H](NC(=O)[C@H](COC(F)F)NC(=O)CN1CCOCC1)C(=O)N[C@@H](COC(F)F)C(=O)N[C@@H](CC(C)C)C(=O)[C@@]1(C)CO1 [Example 1, (2S)—N-[(1S)-1-(difluoromethoxymethyl)-2-[[(1S)-3-methyl-1-[(2R)-2-methyloxirane-2-carbonyl]butyl]amino]-2-oxo-ethyl]-2-[[(2S)-3-(difluoromethoxy)-2-[(2-morpholinoacetyl)amino]propanoyl]amino]-4-methyl-pentanamide]
- Log10GI50 [1]: −7.56
- Log10LC50 [1]: >−4.00
- Log10TGI50 [1]: −6.68
- Log10GI50 [2]: −7.60
- Log10LC50 [2]: >−4.00
- Log10TGI50 [2]: −6.95
- Log10GI50 [3]: −7.69
- Log10LC50 [3]: −6.91
- Log10TGI50 [3]: −7.34

Compound: CC(C)C[C@H](NC(=O)[C@H](COC(F)F)NC(=O)CN1CCOCC1)C(=O)N[C@@H](Cc1ccccc1)C(=O)N[C@@H](CC(C)C)C(=O)[C@@]1(C)CO1 [Example 2, (2S)-N-[(1S)-1-benzyl-2-[[(1S)-3-methyl-1-[(2R)-2-methyloxirane-2-carbonyl]butyl]-amino]-2-oxo-ethyl]-2-[[(2S)-3-(difluoromethoxy)-2-[(2-morpholinoacetyl)amino]propanoyl]amino]-4-methyl-pentanamide]
- Log10GI50 [1]: −7.73
- Log10LC50 [1]: >−4.00
- Log10TGI50 [1]: −6.67
- Log10GI50 [2]: −7.59
- Log10LC50 [2]: >−4.00
- Log10TGI50 [2]: −6.82
- Log10GI50 [3]: −7.80
- Log10LC50 [3]: −6.64
- Log10TGI50 [3]: −7.34

Compound: CC(C)C[C@H](NC(=O)[C@H](COC(F)F)NC(=O)CN1CCOCC1)C(=O)N[C@@H](Cc1ccccc1)C(=O)N[C@@H](Cc1ccccc1)C(=O)[C@@]1(C)CO1 [Example 3, (2S)-N-[(1S)-1-benzyl-2-[[(1S)-1-benzyl-2-[(2R)-2-methyloxiran-2-yl]-2-oxo-ethyl]amino]-2-oxo-ethyl]-2-[[(2S)-3-(difluoromethoxy)-2-[(2-morpholinoacetyl)-amino]propanoyl]amino]-4-methyl-pentan-amide]
- Log10GI50 [1]: <−8.00
- Log10LC50 [1]: −4.33
- Log10TGI50 [1]: −6.69
- Log10GI50 [2]: −7.93
- Log10LC50 [2]: −6.13
- Log10TGI50 [2]: −7.17
- Log10GI50 [3]: <−8.00
- Log10LC50 [3]: −6.36
- Log10TGI50 [3]: −7.25

Compound: CC(C)C[C@H](NC(=O)[C@H](COC(F)F)NC(=O)CN1CCOCC1)C(=O)N[C@@H](COC(F)F)C(=O)N[C@@H](Cc1ccccc1)C(=O)[C@@]1(C)CO1 [Example 4, (2S)-N-[(1S)-2-[[(1S)-1-benzyl-2-[(2R)-2-methyloxiran-2-yl]-2-oxo-ethyl]amino]-1-(difluoromethoxymethyl)-2-oxo-ethyl]-2-[[(2S)-3-(difluoromethoxy)-2-[(2-mor-pholinoacetyl)amino]propanoyl]amino]-4 methyl-pentanamide]
- Log10GI50 [1]: −7.51
- Log10LC50 [1]: −4.31
- Log10TGI50 [1]: −6.63
- Log10GI50 [2]: −7.39
- Log10LC50 [2]: −4.67
- Log10TGI50 [2]: −6.59
- Log10GI50 [3]: −7.43
- Log10LC50 [3]: −6.11
- Log10TGI50 [3]: −6.89

Compound: CC(C)C[C@H](NC(=O)[C@H](COC(F)F)NC(=O)[C@H](COC(F)F)NC(=O)[C@H](CCc1ccccc1)NC(=O)CN1CCOCC1)C(=O)[C@@]1(C)CO1 [Example 7, (2S)-N-[(1S)-1-(difluoromethoxymethyl)-2-[[(1S)-1-(difluoromethoxymethyl)-2-[[(1S)-3-methyl-1-[(2R)-2-methyloxirane-2-carbo-nyl]butyl]amino]-2-oxo-ethyl]amino]-2-oxo-ethyl]-2-[(2-morpholinoacetyl)amino]-4-phenyl-butanamide]
- Log10GI50 [1]: −7.57
- Log10LC50 [1]: >−4.00
- Log10TGI50 [1]: −5.58
- Log10GI50 [2]: −7.49
- Log10LC50 [2]: −4.37
- Log10TGI50 [2]: −6.73
- Log10GI50 [3]: −7.64
- Log10LC50 [3]: −6.40
- Log10TGI50 [3]: −7.24

Compound: CC(C)C[C@H](NC(=O)[C@H](Cc1ccccc1)NC(=O)[C@H](COC(F)F)NC(=O)[C@H](COC(F)F)NC(=O)CN1CCOCC1)C(=O)[C@@]1(C)CO1 [Example 11, (2S)-2-[[(2S)-3-(difluoromethoxy)-2-[[(2S)-3-(difluoromethoxy)-2-[(2-morpholinoacetyl)-amino]propanoyl]amino]propanoyl]amino]-N-[(1S)-3-methyl-1-[(2R)-2-methyloxirane-2-carbonyl]butyl]-3-phenyl-propanamide]
- Log10GI50 [1]: −7.50
- Log10LC50 [1]: >−4.00
- Log10TGI50 [1]: −5.55
- Log10GI50 [2]: −7.52
- Log10LC50 [2]: >−4.00
- Log10TGI50 [2]: −6.73
- Log10GI50 [3]: −7.66
- Log10LC50 [3]: −6.82
- Log10TGI50 [3]: −7.31

Compound: CC(C)C[C@H](NC(=O)[C@H](COC(F)F)NC(=O)[C@H](COC(F)F)NC(=O)[C@H](COC(F)F)NC(=O)CN1CCOCC1)C(=O)[C@@]1(C)CO1 [Example 17, (2S)-3-(difluoromethoxy)-N-[(1S)-1-(difluoromethoxymethyl)-2-[[(1S)-1-(difluoro-methoxymethyl)-2-[[(1S)-3-methyl-1-[(2R)-2-methyloxirane-2-carbonyl]butyl]amino]-2-oxo-ethyl]amino]-2-oxo-ethyl]-2-[(2-mor-pholinoacetyl)amino]-propanamide]
- Log10GI50 [1]: −7.15
- Log10LC50 [1]: >−4.00
- Log10TGI50 [1]: −5.98
- Log10GI50 [2]: −7.14
- Log10LC50 [2]: −5.39
- Log10TGI50 [2]: −6.42
- Log10GI50 [3]: −7.30
- Log10LC50 [3]: −6.05
- Log10TGI50 [3]: −6.65
